Holding throughout (test): High-throughput kinase assay
What all share (assay type): biochemical

The target of one assay is LCK (Homo sapiens, UniProt P06239). Conditions: read-out: Percent inhibition of kinase activity in vitro, LCK; for inhibition at 0.1 µM: 100 nM; for inhibition at 0.5 µM: 500 nM. As for the experimental part:
(§1) Screening of Compounds 1-4 against several kinases identified two prominent targets of these compounds as the Aurora A kinase and calcium dependent protein kinase C isoforms α, βI, βII and […] (Tables 1 to 3). IC50s for these two targets were obtained by plotting inhibition levels at 500 nM, 100 nM, 50 nM and 10 nM (FIG. 3). These kinases are directly involved in pathways controlling cell differentiation programs, metastasis signaling, as well as EMT and CSC programming and their overexpression was reported to predict decreased metastasis-free survival.

The target of another assay is JAK2 (Homo sapiens, UniProt O60674). Conditions: read-out: Percent inhibition of kinase activity in vitro, JAK2; for inhibition at 0.1 µM: 100 nM; for inhibition at 0.5 µM: 500 nM. On the procedure: as §1
The target of a further assay is PRKCH (PKC eta) (Homo sapiens, UniProt P24723). Conditions: 50 nM; read-out: Percent inhibition of kinase activity in vitro, PRKCH (PKC eta). On the procedure:
as §1

In a further assay the target is AKT1 (PKB alpha) (Homo sapiens, UniProt P31749). To be noted: read-out: Percent inhibition of kinase activity in vitro, AKT1 (PKB alpha); for inhibition at 0.1 µM: 100 nM; for inhibition at 0.5 µM: 500 nM. As for the experimental part:
as §1

For another assay, the target named is PRKCA (PKC alpha) (Homo sapiens, UniProt P17252). To be noted: for inhibition at 0.05 µM: 50 nM; for inhibition at 0.1 µM: 100 nM; for inhibition at 0.5 µM: 500 nM. On the procedure: as §1
For the next assay, the target named is YES1 (Homo sapiens, UniProt P07947). To be noted: read-out: Percent inhibition of kinase activity in vitro, YES1; for inhibition at 0.1 µM: 100 nM; for inhibition at 0.5 µM: 500 nM. As for the experimental part: as §1
Sequence of YES1 (P07947 whole entry): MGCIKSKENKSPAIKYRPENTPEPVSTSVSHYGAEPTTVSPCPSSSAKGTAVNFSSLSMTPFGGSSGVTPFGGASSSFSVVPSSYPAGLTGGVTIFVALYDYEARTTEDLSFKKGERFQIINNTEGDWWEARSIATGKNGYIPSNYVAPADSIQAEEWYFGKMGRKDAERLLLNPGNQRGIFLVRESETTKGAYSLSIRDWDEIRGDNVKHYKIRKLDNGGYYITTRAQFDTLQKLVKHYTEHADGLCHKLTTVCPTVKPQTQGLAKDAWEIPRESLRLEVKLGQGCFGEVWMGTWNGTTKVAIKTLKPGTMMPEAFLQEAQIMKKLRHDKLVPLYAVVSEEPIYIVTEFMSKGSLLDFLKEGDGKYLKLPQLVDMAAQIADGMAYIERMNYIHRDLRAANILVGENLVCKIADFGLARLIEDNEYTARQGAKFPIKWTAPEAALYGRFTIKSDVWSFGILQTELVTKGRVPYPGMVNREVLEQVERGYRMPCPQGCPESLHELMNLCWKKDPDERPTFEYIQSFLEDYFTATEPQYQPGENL
The target of a further assay is PRKCQ (PKC theta) (Homo sapiens, UniProt Q04759). Conditions: 50 nM; read-out: Percent inhibition of kinase activity in vitro, PRKCQ (PKC theta). As for the experimental part:
as §1

For the next assay, the target named is PDGFRA (PDGFR alpha) (Homo sapiens, UniProt P16234). Conditions: read-out: Percent inhibition of kinase activity in vitro, PDGFRA (PDGFR alpha); for inhibition at 0.1 µM: 100 nM; for inhibition at 0.5 µM: 500 nM. As for the experimental part:
as §1

The target in the next assay is RET (Homo sapiens, UniProt P07949). Conditions: read-out: Percent inhibition of kinase activity in vitro, RET; for inhibition at 0.1 µM: 100 nM; for inhibition at 0.5 µM: 500 nM. As for the experimental part:
as §1

In a further assay the target is FLT1 (VEGFR1) (Homo sapiens, UniProt P17948). Conditions: read-out: Percent inhibition of kinase activity in vitro, FLT1 (VEGFR1); for inhibition at 0.1 µM: 100 nM; for inhibition at 0.5 µM: 500 nM. As for the experimental part:
as §1

The target of the next assay is SYK (Homo sapiens, UniProt P43405). Conditions: read-out: Percent inhibition of kinase activity in vitro, SYK; for inhibition at 0.1 µM: 100 nM; for inhibition at 0.5 µM: 500 nM. On the procedure:
as §1

A further assay addresses PRKCB2 (PKC beta II) (Homo sapiens, UniProt P05771). Conditions: 50 nM; read-out: Percent inhibition of kinase activity in vitro, PRKCB2 (PKC beta II). On the procedure: as §1
The target in another assay is T1, PRKCI (PKC iota) (Homo sapiens, UniProt P41743).
T1 sequence (P41743 1-596): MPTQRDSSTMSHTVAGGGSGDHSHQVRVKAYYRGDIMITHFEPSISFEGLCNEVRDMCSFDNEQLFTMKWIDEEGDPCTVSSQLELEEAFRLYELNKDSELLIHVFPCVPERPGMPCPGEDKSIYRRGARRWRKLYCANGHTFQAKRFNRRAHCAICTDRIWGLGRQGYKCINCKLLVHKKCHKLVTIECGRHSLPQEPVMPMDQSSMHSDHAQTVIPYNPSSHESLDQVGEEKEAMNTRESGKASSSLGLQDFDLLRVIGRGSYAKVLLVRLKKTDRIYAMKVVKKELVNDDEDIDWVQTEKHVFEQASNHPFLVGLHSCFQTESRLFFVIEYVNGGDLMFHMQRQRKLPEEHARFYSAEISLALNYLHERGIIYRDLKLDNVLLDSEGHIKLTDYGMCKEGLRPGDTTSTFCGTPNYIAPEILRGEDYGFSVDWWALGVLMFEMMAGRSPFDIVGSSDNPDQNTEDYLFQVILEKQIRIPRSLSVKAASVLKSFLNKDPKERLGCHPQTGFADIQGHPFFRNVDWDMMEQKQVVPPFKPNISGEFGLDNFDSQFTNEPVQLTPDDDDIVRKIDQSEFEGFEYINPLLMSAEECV
To be noted: 50 nM; read-out: Percent inhibition of kinase activity in vitro, PRKCI (PKC iota). On the procedure: as §1

A further assay concerns the target PTK2 (FAK) (Homo sapiens, UniProt Q05397). To be noted: read-out: Percent inhibition of kinase activity in vitro, PTK2 (FAK); for inhibition at 0.1 µM: 100 nM; for inhibition at 0.5 µM: 500 nM. As for the experimental part:
as §1

The mark [1] stands for this setting: read-out: Percent inhibition of kinase activity in vitro, PRKCA (PKC alpha).

As a reminder, the inhibition is the change of the read-out against control, counted positive when it falls. As a reminder, the IC50 is the midpoint of a concentration-inhibition curve. High values mean a need for much substance, low ones inhibition by little substance.

Sequence of PRKCH (PKC eta) (P24723 whole entry): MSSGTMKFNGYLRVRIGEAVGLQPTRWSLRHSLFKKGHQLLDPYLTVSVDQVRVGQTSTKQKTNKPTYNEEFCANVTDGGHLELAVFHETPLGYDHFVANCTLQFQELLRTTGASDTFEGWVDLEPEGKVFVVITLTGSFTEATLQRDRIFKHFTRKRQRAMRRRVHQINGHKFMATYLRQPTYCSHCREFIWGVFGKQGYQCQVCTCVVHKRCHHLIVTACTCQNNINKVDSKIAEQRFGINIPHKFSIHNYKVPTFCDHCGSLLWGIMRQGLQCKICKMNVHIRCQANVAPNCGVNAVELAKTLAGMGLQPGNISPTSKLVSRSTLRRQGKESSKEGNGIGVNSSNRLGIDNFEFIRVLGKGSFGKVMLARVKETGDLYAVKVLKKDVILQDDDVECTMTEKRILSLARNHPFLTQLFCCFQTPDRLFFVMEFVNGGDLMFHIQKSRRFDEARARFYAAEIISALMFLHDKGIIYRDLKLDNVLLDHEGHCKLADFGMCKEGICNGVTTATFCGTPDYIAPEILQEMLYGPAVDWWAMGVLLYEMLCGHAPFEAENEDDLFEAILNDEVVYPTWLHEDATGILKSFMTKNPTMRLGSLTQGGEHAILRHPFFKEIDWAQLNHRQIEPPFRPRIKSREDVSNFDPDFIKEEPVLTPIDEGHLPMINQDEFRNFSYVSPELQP
Sequence of AKT1 (PKB alpha) (P31749 whole entry): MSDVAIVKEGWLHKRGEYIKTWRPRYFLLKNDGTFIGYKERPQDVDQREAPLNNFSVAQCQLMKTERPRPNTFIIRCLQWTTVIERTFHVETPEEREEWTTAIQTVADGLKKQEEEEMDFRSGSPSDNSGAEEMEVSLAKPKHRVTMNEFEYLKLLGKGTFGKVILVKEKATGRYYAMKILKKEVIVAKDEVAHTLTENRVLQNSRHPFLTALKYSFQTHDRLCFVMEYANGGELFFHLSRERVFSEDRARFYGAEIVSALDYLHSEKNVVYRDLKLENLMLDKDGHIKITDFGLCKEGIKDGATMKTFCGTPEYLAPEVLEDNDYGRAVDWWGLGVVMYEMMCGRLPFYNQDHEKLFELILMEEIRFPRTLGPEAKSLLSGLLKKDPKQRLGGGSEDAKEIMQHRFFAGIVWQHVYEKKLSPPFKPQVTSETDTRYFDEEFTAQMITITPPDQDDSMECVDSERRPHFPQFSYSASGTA
Sequence of FLT1 (VEGFR1) (P17948 27-1338): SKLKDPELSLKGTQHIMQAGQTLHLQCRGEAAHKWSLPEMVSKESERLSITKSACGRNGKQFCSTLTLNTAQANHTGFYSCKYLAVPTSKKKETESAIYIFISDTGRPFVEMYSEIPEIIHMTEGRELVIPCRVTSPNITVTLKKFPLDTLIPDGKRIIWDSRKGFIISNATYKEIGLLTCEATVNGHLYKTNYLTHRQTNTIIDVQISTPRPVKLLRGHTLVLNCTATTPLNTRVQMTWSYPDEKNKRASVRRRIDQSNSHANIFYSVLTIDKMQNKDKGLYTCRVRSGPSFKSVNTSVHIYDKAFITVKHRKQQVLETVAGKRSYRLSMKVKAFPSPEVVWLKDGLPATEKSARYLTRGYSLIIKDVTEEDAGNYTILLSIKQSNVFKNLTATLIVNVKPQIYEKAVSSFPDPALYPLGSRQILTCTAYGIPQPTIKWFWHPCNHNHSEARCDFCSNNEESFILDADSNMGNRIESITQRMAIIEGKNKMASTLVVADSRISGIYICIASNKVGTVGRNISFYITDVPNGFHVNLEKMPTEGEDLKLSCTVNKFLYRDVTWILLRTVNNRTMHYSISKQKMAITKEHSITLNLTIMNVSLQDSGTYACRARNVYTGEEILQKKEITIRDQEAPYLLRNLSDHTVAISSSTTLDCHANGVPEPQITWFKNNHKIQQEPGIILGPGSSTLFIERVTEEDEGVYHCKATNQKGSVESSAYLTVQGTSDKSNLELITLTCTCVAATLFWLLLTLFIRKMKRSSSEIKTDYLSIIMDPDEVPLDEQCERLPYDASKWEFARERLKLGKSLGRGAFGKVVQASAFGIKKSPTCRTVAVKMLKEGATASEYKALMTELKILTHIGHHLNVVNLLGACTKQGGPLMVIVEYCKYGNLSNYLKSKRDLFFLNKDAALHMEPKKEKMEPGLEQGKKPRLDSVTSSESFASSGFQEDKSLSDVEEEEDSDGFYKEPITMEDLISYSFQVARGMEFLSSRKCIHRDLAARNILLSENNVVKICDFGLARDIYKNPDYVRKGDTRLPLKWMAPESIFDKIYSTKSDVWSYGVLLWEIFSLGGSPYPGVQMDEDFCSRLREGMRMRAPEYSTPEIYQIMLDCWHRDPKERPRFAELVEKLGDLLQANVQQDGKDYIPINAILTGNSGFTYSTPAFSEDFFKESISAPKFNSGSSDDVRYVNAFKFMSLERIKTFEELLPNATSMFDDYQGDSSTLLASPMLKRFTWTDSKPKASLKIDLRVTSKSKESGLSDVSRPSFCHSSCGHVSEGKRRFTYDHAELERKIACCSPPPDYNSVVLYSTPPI
Sequence of PTK2 (FAK) (Q05397 whole entry): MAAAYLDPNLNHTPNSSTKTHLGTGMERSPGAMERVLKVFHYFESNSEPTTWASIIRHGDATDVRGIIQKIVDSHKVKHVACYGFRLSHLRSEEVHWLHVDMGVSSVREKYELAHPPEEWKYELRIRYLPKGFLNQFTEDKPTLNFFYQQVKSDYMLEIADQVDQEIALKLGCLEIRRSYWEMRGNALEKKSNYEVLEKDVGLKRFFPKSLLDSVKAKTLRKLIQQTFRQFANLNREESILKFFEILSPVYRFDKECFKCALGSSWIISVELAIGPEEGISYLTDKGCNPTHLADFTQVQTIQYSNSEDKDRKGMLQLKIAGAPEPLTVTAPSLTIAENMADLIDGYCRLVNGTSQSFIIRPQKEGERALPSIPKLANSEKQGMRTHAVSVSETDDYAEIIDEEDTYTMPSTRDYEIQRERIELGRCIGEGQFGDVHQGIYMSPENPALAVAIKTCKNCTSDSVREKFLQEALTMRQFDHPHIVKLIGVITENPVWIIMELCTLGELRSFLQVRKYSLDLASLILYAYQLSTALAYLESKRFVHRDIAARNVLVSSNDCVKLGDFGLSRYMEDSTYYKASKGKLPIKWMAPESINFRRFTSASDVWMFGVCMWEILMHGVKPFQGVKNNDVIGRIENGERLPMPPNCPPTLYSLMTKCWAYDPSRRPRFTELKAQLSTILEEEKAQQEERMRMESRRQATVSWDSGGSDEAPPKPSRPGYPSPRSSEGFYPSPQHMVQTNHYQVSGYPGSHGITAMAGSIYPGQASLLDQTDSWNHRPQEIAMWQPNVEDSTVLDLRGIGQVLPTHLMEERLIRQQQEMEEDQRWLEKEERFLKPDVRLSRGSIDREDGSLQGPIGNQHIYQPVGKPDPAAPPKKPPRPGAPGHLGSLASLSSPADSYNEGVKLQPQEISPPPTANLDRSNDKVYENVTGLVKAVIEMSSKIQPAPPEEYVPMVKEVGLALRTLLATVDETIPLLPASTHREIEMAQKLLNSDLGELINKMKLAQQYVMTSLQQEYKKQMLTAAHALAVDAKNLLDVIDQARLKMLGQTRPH

As to `O=c1c2ccccc2[se]n1-c1nc(NC2CCCCC2)c2nc[nH]c2n1` [Compound 1], the inhibition at 0.1 µM at LCK was 7%; on JAK2, 10%; at AKT1 (PKB alpha), 4%; on PRKCA (PKC alpha) (setting [1]) it was 83%; at YES1, 22%; on PDGFRA (PDGFR alpha), 0%. The inhibition at 0.1 µM on RET turned out to be 5%; on FLT1 (VEGFR1) it was 0%; at SYK, 6%; on PTK2 (FAK), 5%. Moreover, the inhibition at 0.5 µM at LCK came out at 14%; on JAK2, 10%; on AKT1 (PKB alpha), 11%; at PRKCA (PKC alpha) (setting [1]), 98%; on YES1, 47%; on PDGFRA (PDGFR alpha), 3%. Besides, the inhibition at 0.5 µM at RET stood at 23%; on FLT1 (VEGFR1), 1%; at SYK, 8%; on PTK2 (FAK), 7%. Also, the inhibition at 0.05 µM at PRKCH (PKC eta) was found to be 0%; on PRKCA (PKC alpha) (setting [1]), 68%; on PRKCQ (PKC theta) it was 62%; at PRKCB2 (PKC beta II) it was 62%; at PRKCI (PKC iota), 4%.
Regarding `O=c1c2ccccc2[se]n1-c1nc(NC2CC[Se]C2)c2nc[nH]c2n1` (stereo not drawn) [Compound 2], the inhibition at 0.1 µM is 10% on LCK; 15% at JAK2; 4% on AKT1 (PKB alpha); 84% at PRKCA (PKC alpha) (setting [1]); 22% on YES1; 6% at RET. In addition, the figures for the inhibition at 0.1 µM on SYK and at PTK2 (FAK) were 2% and 5%, respectively. The inhibition at 0.5 µM at LCK is 14%; at JAK2, 13%; at AKT1 (PKB alpha) it was 15%; on PRKCA (PKC alpha) (setting [1]), 96%; at YES1, 35%; at PDGFRA (PDGFR alpha), 4%. Also, the inhibition at 0.5 µM is 18% on RET, 5% at FLT1 (VEGFR1), 9% at SYK and 7% on PTK2 (FAK).
Take `C[C@@H]1C(Nc2nc(-n3[se]c4ccccc4c3=O)nc3[nH]cnc23)C[C@H]2C[C@@H]1C2(C)C` (stereo partly drawn) [Compound 3]: the inhibition at 0.1 µM on LCK turned out to be 0%; on JAK2, 13%; on AKT1 (PKB alpha) it was 1%; at PRKCA (PKC alpha) (setting [1]) it was 45%; at YES1 it was 17%; at RET, 5%. The inhibition at 0.1 µM at SYK and at PTK2 (FAK) was 0% throughout. For the same compound, the inhibition at 0.5 µM came to 16% at LCK; 11% on JAK2; 29% on AKT1 (PKB alpha); 86% on PRKCA (PKC alpha) (setting [1]); 53% on YES1; 5% at PDGFRA (PDGFR alpha). Moreover, the inhibition at 0.5 µM at RET turned out to be 36%; on FLT1 (VEGFR1), 7%; at SYK, 24%; on PTK2 (FAK), 8%.
For `O=c1c2ccccc2[se]n1-c1nc(N[C@H]2CC[Se]C2)c2nc[nH]c2n1` [Compound 4], the inhibition at 0.1 µM was 8% at LCK; 18% at JAK2; 4% at AKT1 (PKB alpha); 98% on PRKCA (PKC alpha) (setting [1]); 24% at YES1; 1% on PDGFRA (PDGFR alpha). Also, the inhibition at 0.1 µM at RET was found to be 10%; on FLT1 (VEGFR1), 4%; on SYK, 6%; on PTK2 (FAK), 1%. The inhibition at 0.05 µM on PRKCH (PKC eta) is 6%; at PRKCA (PKC alpha) (setting [1]), 101%; at PRKCQ (PKC theta), 98%; on PRKCB2 (PKC beta II) it was 95%; on PRKCI (PKC iota) it was 7%. Besides, the inhibition at 0.01 µM at PRKCA (PKC alpha) (10 nM, read-out: Percent inhibition of kinase activity in vitro, PRKCA (PKC alpha)) is 22%. The same compound came in with an IC50 against PRKCA (PKC alpha) (from inhibition levels at 500, 100, 50 and 10 nM) of 10.9 nM.
Regarding `O=C1c2ccccc2CN1c1nc(NC2CCCCC2)c2nc[nH]c2n1` [SLLN-6C, reference compound], the inhibition at 0.1 µM on LCK is 8%; at JAK2 it was 7%; on AKT1 (PKB alpha) it was 2%; at PRKCA (PKC alpha) (setting [1]) it was 0%; at YES1, 5%; on PDGFRA (PDGFR alpha), 0%. Besides, the inhibition at 0.1 µM on RET came out at 6%; on FLT1 (VEGFR1), 0%; on SYK, 2%; on PTK2 (FAK), 3%. The inhibition at 0.05 µM at PRKCH (PKC eta) was determined as 0%; on PRKCA (PKC alpha) (setting [1]), 14%; on PRKCQ (PKC theta), 0%; on PRKCB2 (PKC beta II), 5%; on PRKCI (PKC iota), 7%.
